Data published in patent US10588935B2, “FC receptor (FcRn) binding peptides and uses thereof” (THE BRIGHAM AND WOMEN'S HOSPITAL, INC., priority 2013, dated 2020).
“And” between values parts separate entries of the source, which are not always exact repeats. Equal entries are not always repeated. “Also recorded” adds a separate entry of the source. Where two headings read alike, the source gives them in different places. Values belong to the compound of their own block, whether it stands above or below them. Bridge positions count the residues as written; N and C are the ends. Peptide text beside a SMILES is read from it.

How the values were obtained:
shFcRn binding to HSA = shFcRn binding to HSA (Homo sapiens, UniProt P55899); assay: SPR screening of FcRn binding peptides for inhibition of shFcRn binding to immobilized HSA; details: 14 uM peptide, 5 uM shFcRn, pH 6
Experimental: Unreacted sites were then capped by injecting a solution of ethanolamine over the chip surface. A reference flow cell was activated with EDC/NHS and then blocked with ethanolamine.
Samples were injected over the chip for 3 minutes at 20 uL/min followed by a 2.5 minute dissociation phase.

FcRn [1] = target: T1, FcRn (Homo sapiens, UniProt P55899); details: Mezo, PNAS, 2007; cited from earlier work
FcRn [2] = target: T1, FcRn; assay: Competition for albumin or IgG binding to FcRn; design: Soluble human FcRn was expressed and purified by Biogen-Idec as previously described (29); details: for Competition for albumin or IgG binding to FcRn: Table 3; for competition with IgG or albumin for the FcRn binding site: competition experiments / SPR
Text: Peptide phage libraries, obtained from Dyax Corp, were screened against biotinylated soluble human FcRn bound to streptavidin beads, using 3 rounds of sequential pH 6.0 binding and pH 7.5 elution/amplification protocols. […] Peptide SYN514 was utilized during a 2nd peptide phage screen to occupy this site on FcRn prior to the addition of the phage libraries, and to identify albumin-competitive sequences. This strategy uncovered the albumin-competitive peptide, SYN571, and through structure-activity relationships, the shorter sequence SYN1753 (Ac-[…]-CONH2 (SEQ ID NO: 1) (disulfide) which bound to shFcRn with equivalent affinity as determined by SPR.

soluble human FcRn = target: T2, soluble human FcRn (Homo sapiens, UniProt P55899); assay: SPR (Biacore) affinity of peptides for immobilized soluble human FcRn; format: binding
T2 construct: Soluble human FcRn was expressed and purified by Biogen-Idec as previously described (29)
Summary of the method: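 FcRn amine-coupled to CM5 chip; binding run at pH 6.0 or 7.4 in 50 mM phosphate, 100 mM NaCl, 0.01% P20, with 5-minute dissociation and pH 8.0 Tris regeneration. KD derived from sensorgrams with a 1:1 binding model; end-of-association responses plotted versus concentration.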

[3] = tested on: MDCK II cells expressing hFcRn and hβ2m; assay: FcRn dependent albumin transcytosis bioassay; format: cell-based, canine; details: input chamber pH 6.0, exit pH 7.4, 2 hours, compared to scrambled peptide or isotype control
Experimental: Albumin transcytosis assays were performed as previously described for IgG. In brief, MDCK II cells expressing hβ2m and hFcRn were grown to confluence on transwells (Costar) and allowed to polarize over 4 days. 12 hours before the transcytosis experiment, the medium was changed to serum-free media without antibiotics. On the day of experiment, the transwells were incubated with HBSS pH 7.4 for 20 minutes before placing on a new 12 well plate (Costar) where the input chamber contains HBSS pH 6.0 and the exit chamber contains HBSS pH 7.4 and pH adjusted albumin was added to the input chamber afterwards. For blocking albumin transcytosis with the peptide inhibitors SYN1753 and SYN3258, transwells were pre-incubated for 20 min with the respective peptides in HBSS pH 6.0 prior to the addition of albumin in the continued presence of the peptides. After incubating for 2 hours in 37° C. and 5% CO2, the medium at the opposite chamber were harvested and the albumin concentration was measured using ELISA method. For the recycling assay, the transwells were washed with HBSS pH 7.4 for 5 minutes before placing on a new 12-well plate with HBSS pH 6.0 at both chambers. After equilibration at 37° C. and 5% CO2, pH adjusted albumin human albumin was added and allowed to incubate for one hour. The transwells were then washed at HBSS pH 6.0 before placing in a new 12-well plate with HBSS pH 7.4 at both chambers. After one hour incubation, medium from the input chamber was removed and the albumin concentration was measured by ELISA. For the human albumin secretion assay the medium was changed to serum- and antibiotic-free media on the day of the experiment. 50 μL of the medium from both chambers were removed periodically over 24 hours, and the human albumin concentration was measured using ELISA with volume reduction adjustment.

[4] = tested on: hFCGRT^Tg/hB2m^Tg/mFcgrt^−/− mice; assay: In vivo acetaminophen toxicity with blockade of FcRn-albumin interaction; design: species or system mouse; details: 40 mg/kg body weight per day via i.p. osmotic pump; vs control peptide
Experimental: In vivo acetaminophen toxicity experiments: Acetaminophen (Sigma-Aldrich) was diluted in PBS at a concentration of 33.3 mg/ml. […] In blocking experiments using antibody administration, ADM31 or isotype control were administered 14 h prior to the injection of APAP. For blocking the interaction between FcRn and albumin via peptide, a cyclic control peptide for SYN3258 was designed in which three key residues per monomer that were identified by alanine screening to be critical for binding between FcRn and albumin were mutated to alanines (W7A, W11A, […]). SYN3258 or the control peptide were then continuously administered at a dose of 40 mg/kg body weight per day via i.p. osmotic pumps (Alzet, Cupertino, Cat. No 1003D) over a 72 hour period. Prior to the surgical implantation of the pumps, mice were anaesthetized with Buprenex (0.1 mg/kg body weight) s.c. and Ketamine HCl (100 mg/kg)/Xylazine (10 mg/kg) i.p. Hair on the incision site was clipped and the implantation area was disinfected by 5% iodine in 70% isopropanol. Antibiotics (100 μg/ml of gentamycin) were sprayed on the area of incision to prevent infection, and skin was sutured using polypropylene suture. Total duration of the surgical procedure was around 5 minutes per mouse. 18-20 hours after pump implantation, a lethal dose of acetaminophen was administered i.p.

[5] = pH 6.0, read-out: affinity for FcRn by SPR
[6] = Table 2, pH 6, immobilized shFcRn, data fit steady state or 2 site, read-out: Kd, pH 6** Biacore

Compound: CC(=O)N[C@@H](CCCNC(=N)N)C(=O)N[C@@H](Cc1ccccc1)C(=O)N[C@@H]1C(=O)N[C@@H]([C@@H](C)O)C(=O)NCC(=O)N[C@@H](Cc2c[nH]cn2)C(=O)N[C@@H](Cc2ccccc2)C(=O)NCC(=O)N(C)CC(=O)N(C)[C@@H](CC(C)C)C(=O)N[C@@H](Cc2ccc(O)cc2)C(=O)N2CCC[C@H]2C(=O)N[C@H](C(N)=O)CSSC1(C)C [SYN1327, Ac-RF-Pen-TGHFG-Sar-NMeLeu-YPC-CONH2, reference compound]
block of shFcRn binding to immobilized HSA (shFcRn binding to HSA): not able to compete for HSA binding | block of IgG binding to hFcRn (FcRn [1]): block the binding of IgG to hFcRn | Competition for albumin or IgG binding to FcRn (FcRn [2]): IgG | competition with IgG or albumin for the FcRn binding site (FcRn [2]): competes for binding of IgG

competition with IgG or albumin for the FcRn binding site (FcRn [2]): non-IgG, non-albumin competitive
Compound: Ac-AGVMHCFWDEEFKCDQGGTGGGK-CONH2 (Ac-AGVMHCFWDEEFKCDQGGTGGGK-NH2; disulfide 6-14 (inferred)) [SYN514]

Kd (soluble human FcRn; Table 3, pH 6.0, read-out: Kd, pH 6.0 (Biacore μM)): 0.5 µM | Kd (soluble human FcRn; [5]): ~0.5 µM
Compound: CC(=O)N[C@@H](CCCNC(=N)N)C(=O)N[C@@H](Cc1ccc(O)cc1)C(=O)N[C@@H](Cc1ccccc1)C(=O)N[C@H]1CSSC[C@@H](C(=O)N[C@@H](CCC(=O)O)C(=O)N[C@@H](CCC(=O)O)C(=O)N[C@H](C(=O)NCC(=O)N[C@H](C(N)=O)[C@@H](C)O)C(C)C)NC(=O)[C@H](Cc2c[nH]c3ccccc23)NC(=O)CNC(=O)[C@H](Cc2c[nH]cn2)NC(=O)[C@H](CCCCN)NC(=O)[C@H](Cc2c[nH]c3ccccc23)NC(=O)[C@H](CCCCN)NC(=O)[C@H]([C@@H](C)O)NC1=O [SYN1753]
transcytosis of human albumin [3]: capable of blocking transcytosis of human albumin; also recorded: significantly reducing

Kd Ratio 7.4/6.0 (soluble human FcRn; Table 2): 34 | Kd (soluble human FcRn; [6]): 0.032 µM | Kd (soluble human FcRn; Table 2, pH 7.4, data only 100 uM, therefore Kd may be higher, read-out: Kd, pH 7.4 Biacore): 1.1 µM | Competition for albumin or IgG binding to FcRn (FcRn [2]): none
Compound: CSCC[C@H](NC(=O)[C@@H](NC(C)=O)C(C)C)C(=O)N[C@@H](Cc1c[nH]cn1)C(=O)N[C@H]1CSSC[C@@H](C(=O)N[C@@H](CCC(=O)O)C(=O)N[C@@H](Cc2ccc(O)cc2)C(=O)N[C@H](C(N)=O)C(C)C)NC(=O)[C@H](CCCNC(=N)N)NC(=O)[C@H](Cc2ccccc2)NC(=O)[C@H](CCC(=O)O)NC(=O)[C@H](CCC(=O)O)NC(=O)[C@H](CC(=O)O)NC(=O)[C@H](Cc2c[nH]c3ccccc23)NC(=O)[C@H](Cc2ccccc2)NC1=O [SYN1383] (Ac-VMHCFWDEEFRCEYV-NH2; disulfide 4-12 (inferred))
block of shFcRn binding to immobilized HSA (shFcRn binding to HSA): not able to block the binding of shFcRn to HSA | competition with IgG or albumin for the FcRn binding site (FcRn [2]): not been shown to be competitive with IgG or any other proteins; also recorded: does not block IgG binding to FcRn; also recorded: non-IgG, non-albumin competitive

Compound: CC(=O)N[C@@H](CCCNC(=N)N)C(=O)N[C@@H](Cc1ccc(O)cc1)C(=O)N[C@@H](Cc1ccccc1)C(=O)N[C@H]1CSSC[C@@H](C(=O)N[C@@H](CCC(=O)O)C(=O)N[C@@H](CCC(=O)O)C(=O)N[C@H](C(=O)NCC(=O)N[C@H](C(=O)NCC(=O)NCC(=O)NCC(=O)N[C@@H](CCCNC(=N)N)C(=O)N[C@@H](Cc2ccc(O)cc2)C(=O)N[C@@H](Cc2ccccc2)C(=O)N[C@H]2CSSC[C@@H](C(=O)N[C@@H](CCC(=O)O)C(=O)N[C@@H](CCC(=O)O)C(=O)N[C@H](C(=O)NCC(=O)N[C@H](C(N)=O)[C@@H](C)O)C(C)C)NC(=O)[C@H](Cc3c[nH]c4ccccc34)NC(=O)CNC(=O)[C@H](Cc3c[nH]cn3)NC(=O)[C@H](CCCCN)NC(=O)[C@H](Cc3c[nH]c4ccccc34)NC(=O)[C@H](CCCCN)NC(=O)[C@H]([C@@H](C)O)NC2=O)[C@@H](C)O)C(C)C)NC(=O)[C@H](Cc2c[nH]c3ccccc23)NC(=O)CNC(=O)[C@H](Cc2c[nH]cn2)NC(=O)[C@H](CCCCN)NC(=O)[C@H](Cc2c[nH]c3ccccc23)NC(=O)[C@H](CCCCN)NC(=O)[C@H]([C@@H](C)O)NC1=O [SYN3258] (Ac-RYFCTKWKHGWCEEVGTGGGRYFCTKWKHGWCEEVGT-NH2; disulfide 4-12, 24-32)
Kd (soluble human FcRn; [5]): 0.0036 µM | transcytosis of human albumin [3]: capable of blocking transcytosis of human albumin; also recorded: inhibit FcRn-directed transcytosis of albumin | transcytosis of human albumin ([3]; listed as Syn3258): significantly reducing | protection from liver injury (serum ALT) after lethal dose of APAP [4]: conferred protection from liver injury | survival rate after lethal dose of APAP [4]: improve the survival rate

Kd Ratio 7.4/6.0 (soluble human FcRn; Table 1): 29 | Kd (soluble human FcRn; Table 1, pH 6, shFcRn immobilized on the sensor chip, steady state fit, read-out: Kd, pH 6** Biacore): 0.45 µM and 0.5 µM | Kd (soluble human FcRn; Table 1, pH 7.4, shFcRn immobilized, read-out: Kd, pH 7.4 Biacore): 13.1 µM | block of shFcRn binding to immobilized HSA (shFcRn binding to HSA): completely block
Compound: CC(=O)N[C@@H](C)C(=O)NCC(=O)N[C@@H](CCCNC(=N)N)C(=O)N[C@@H](Cc1ccc(O)cc1)C(=O)N[C@@H](Cc1ccccc1)C(=O)N[C@H]1CSSC[C@@H](C(=O)N[C@@H](CCC(=O)O)C(=O)N[C@@H](CCC(=O)O)C(=O)N[C@H](C(=O)NCC(=O)N[C@H](C(=O)NCC(=O)NCC(=O)NCC(=O)N[C@@H](CCCCN)C(N)=O)[C@@H](C)O)C(C)C)NC(=O)[C@H](Cc2c[nH]c3ccccc23)NC(=O)CNC(=O)[C@H](Cc2c[nH]cn2)NC(=O)[C@H](CCCCN)NC(=O)[C@H](Cc2c[nH]c3ccccc23)NC(=O)[C@H](CCCCN)NC(=O)[C@H]([C@@H](C)O)NC1=O [SYN571] (Ac-AGRYFCTKWKHGWCEEVGTGGGK-NH2; disulfide 6-14)
competition with IgG or albumin for the FcRn binding site (FcRn [2]): albumin-competitive; also recorded: inhibit shFcRn:albumin interactions, but not those of IgG: shFcRn

Kd (soluble human FcRn; [6]): > 20 µM | Kd, pH 7.4 Biacore (soluble human FcRn; Table 2, pH 7.4, data only 100 uM, therefore Kd may be higher): no bind
Compound: CSCC[C@H](NC(=O)[C@@H](NC(C)=O)C(C)C)C(=O)N[C@@H](Cc1c[nH]cn1)C(=O)N[C@H]1CSSC[C@@H](C(=O)N[C@@H](CC(=O)O)C(=O)N[C@@H](CCC(N)=O)C(=O)NCC(N)=O)NC(=O)[C@H](CCCCN)NC(=O)[C@H](Cc2ccccc2)NC(=O)[C@H](CCC(=O)O)NC(=O)[C@H](CCC(=O)O)NC(=O)[C@H](CC(=O)O)NC(=O)[C@H](Cc2c[nH]c3ccccc23)NC(=O)[C@H](C)NC1=O [SYN1217] (Ac-VMHCAWDEEFKCDQG-NH2; disulfide 4-12)
